Results published in patent publication US4251628A, “Substrates for angiotensin converting enzyme” (priority 1978, dated 1981).
Where two headings read alike, the source gives them in different places. Ends that are not written are not given here. Peptide text beside a SMILES is read from it.

How the values were obtained:
[1] = target: T1, serum angiotensin converting enzyme (ACE) (Homo sapiens, UniProt P12821); experiment: biochemical; format: biochemical; settings: for ACE Activity as % of control: 60 min; for Mode of inhibition (in words): ACE catalyzed hydrolysis of ^3H-HipGlyGly
T1 construct: the activity observed with the present assay method in human serum is identical to ACE; from tissue; host or cells: human serum (unfractionated)
T1 sequence (P12821 30-1232 limits assumed): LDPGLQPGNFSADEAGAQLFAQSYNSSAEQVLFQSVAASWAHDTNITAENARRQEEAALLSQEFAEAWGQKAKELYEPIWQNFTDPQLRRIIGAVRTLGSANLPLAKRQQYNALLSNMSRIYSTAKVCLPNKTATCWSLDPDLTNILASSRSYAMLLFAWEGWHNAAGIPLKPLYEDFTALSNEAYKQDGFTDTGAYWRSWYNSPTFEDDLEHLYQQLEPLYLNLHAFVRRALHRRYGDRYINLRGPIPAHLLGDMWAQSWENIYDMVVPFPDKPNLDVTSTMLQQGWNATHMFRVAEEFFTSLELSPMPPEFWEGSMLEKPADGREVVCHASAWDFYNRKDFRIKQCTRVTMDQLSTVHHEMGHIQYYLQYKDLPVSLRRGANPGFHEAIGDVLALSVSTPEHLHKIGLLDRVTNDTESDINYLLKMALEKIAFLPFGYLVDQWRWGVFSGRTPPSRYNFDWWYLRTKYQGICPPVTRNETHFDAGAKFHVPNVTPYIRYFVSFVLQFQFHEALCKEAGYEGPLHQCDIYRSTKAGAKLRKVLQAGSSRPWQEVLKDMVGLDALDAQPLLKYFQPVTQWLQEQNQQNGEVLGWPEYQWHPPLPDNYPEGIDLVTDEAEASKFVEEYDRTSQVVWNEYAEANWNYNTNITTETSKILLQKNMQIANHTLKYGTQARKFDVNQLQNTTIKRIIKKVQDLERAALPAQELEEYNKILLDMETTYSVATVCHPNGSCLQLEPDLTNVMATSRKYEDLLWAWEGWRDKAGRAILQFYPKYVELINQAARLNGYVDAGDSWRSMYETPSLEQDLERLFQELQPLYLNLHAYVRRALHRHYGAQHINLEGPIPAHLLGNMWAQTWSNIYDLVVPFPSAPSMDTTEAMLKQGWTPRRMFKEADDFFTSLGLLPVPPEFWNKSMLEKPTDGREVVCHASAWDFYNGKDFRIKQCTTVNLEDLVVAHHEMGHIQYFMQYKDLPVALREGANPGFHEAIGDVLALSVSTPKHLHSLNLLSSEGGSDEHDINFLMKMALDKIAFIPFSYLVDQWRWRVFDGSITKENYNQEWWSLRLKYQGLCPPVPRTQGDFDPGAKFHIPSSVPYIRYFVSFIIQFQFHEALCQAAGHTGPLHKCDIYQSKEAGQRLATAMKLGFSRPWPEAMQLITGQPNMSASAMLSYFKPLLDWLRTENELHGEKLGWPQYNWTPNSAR
Method: The reaction buffer contains 0.05 M Hepes, 0.1 M sodium chloride and 0.6 M sodium sulphate at pH 8.0. (Pepes is N-2-Hydroxyethyl piperazine N'-2-ethane sulfonic acid.) The substrate, ^3 H-HipGlyGly was dissolved in reaction buffer at a concentration of 16 mM and a specific radioactivity of about 0.15 millicuries/millimole. Serum was prepared from fresh whole blood by standard techniques. […] Hemolyzed samples were not used in the assay. […] For the assay, 50 μl. of serum was diluted with 200 μl. of reaction buffer. All the reactions were carried out in glass tubes due to the potentially destructive action of ethyl acetate on plastic.
(§1) The reaction mixture was composed of 50 μl. of diluted serum, an appropriate amount of substrate solution depending on the final substrate concentration desired, and reaction buffer sufficient to give a total reaction volume of 100 μl. All reaction tubes were incubated for 60 minutes at 37° C. Reactions were terminated by the addition of 1.0 ml. of 0.1 N hydrochloric acid. The reaction mixture was then extracted with 1.0 ml. ethyl acetate, by rotary agitation for 4-5 seconds. The phases were separted by centrifugation at 1000×G for ten minutes. A 0.5 ml. sample of the ethyl acetate (upper) layer was removed and tranferred to a scintillation vial containing 10 ml. scintillation fluid. (Riafluor, Trademark, New England Nuclear Corp., Boston, Mass.)
A control determination of background radioactivity was made using 50 μl. of reaction buffer instead of diluted serum in the reaction mixture. The purpose of this control was to determine the number of total counts attributable to background radiation, non-specific release of hippuric acid and the presence of unreacted substrate in the ethyl acetate phase. […] Total radioactivity was determined by counting an amount of substrate equal to that used in the reaction mixture directly in the scintillation counter.
(§2) Reaction velocity, in terms of nanomoles of product formed per minute per ml of serum was calculated according to the following formula: [formula] In this formula, "nmoles" means nanomoles, "min" means minutes, "ml" means milliliters and "cpm" means radioactivity counts per minute. The factor of 2 is a correction for the aliquot size.
In this series of reactions, the procedure described in Ex. 1 was followed except that the substrate concentration was 8 mM throughout and specific inhibitor substances were added at the indicated final concentration. Bradykinin, angiotensin I, BPP5α and EDTA have been described hereinabove. BPP9α (SQ20881) is a nonapeptide from snake venom having the sequence <GluTryProArgProGlnIleProPro.
*Standard assay conditions as described in Example 1 were used.
**ΔCPM = (CPM of compound CPM of Blank)

[2] = target: T2, angiotensin converting enzyme (ACE) (Homo sapiens, UniProt P12821); experiment: Hydrolysis of ^3H-BenzoylProPheArg by normal human serum: effect of various compounds; format: biochemical; settings: ^3H-BenzoylProPheArg substrate
T2 construct: Serum was prepared from fresh whole blood by standard techniques; from tissue; host or cells: serum (unfractionated)
T2 sequence (P12821 30-1232 limits assumed): as above
Method: Hydrolysis of […] ^3 H-BenzoylProPheArg using the standard reaction procedure of Example 1 with normal human serum as the ACE source was measured in the absence and in the presence of competing substrates and an inhibitor.

[3] = Extraction (partition) into ethyl acetate; format: physicochemical
Description: (§3) Reaction conditions optimal for carrying out an ACE catalyzed hydrolysis of a substrate of the present invention are the same as have been previously described for substrates known in the prior art. Detailed studies of optimal conditions using HipGlyGly as substrate have been reported by Dorer, et al. The pH optimum is approximately 8.0 although greater than 50% maximal activity is obtained in the pH range 7.0-9.0, in the presence of 1 M NaCl. […] The relationship between the chloride requirement and the ionic strength requirement has not been fully characterized. […] Phosphate is inhibitory. Hepes, bicine and barbital buffers are suitable for use but Hepes is preferred because it provides maximum activity. Preferred conditions of buffer composition, ionic strength, pH and temperature are described in Example 1. […] The pH range for usable enzyme activity is from pH 6.5 to pH 8.7, with a broad plateau of maximal activity ranging from pH 7.2 to pH 8.5. Optimal substrate concentration depends upon the apparent Km, for the substrate compared with the Km's of possible competing substances in the sample. A substrate having a relatively low Km, such as ^3 H-benzoylProPheArg (Km 2×10^-4 M) could be suitably used at a concentration less than its Km. A substrate having a higher Km might better be used at a concentration greater than its Km. […] Because its Km is the lowest of any of the substrates of the present invention, ^3 H-benzoylProPheArg is the most preferred substrate for assays where ACE activity is low and maximum sensitivity is desired. In addition to being less sensitive to competitive inhibition, assays carried out with this substrate are potentially able to measure lower levels of ACE than the other substrates disclosed herein. Additionally, its partition behavior in an aprotic organic solvent is extremely favorable: only about 3% entered ethyl acetate in a preliminary extraction experiment. The remnant product Benzoylproline was about 90% extracted.
The remnant reaction product may be extracted from the reaction mixture by an aprotic organic solvent which affords a reasonably quantitative separation of product from substrate. The use of solvents which may interfere with the counting process is to be avoided. Ethyl acetate is preferred. Approximately 91% of ^3 H-Hippuric acid is extracted into ethyl acetate. Extraction may be carried out by any suitable means familiar to those skilled in the art, such as shaking, agitating, mixing and the like. Separation of the phases is conveniently accomplished by centrifugation. Centrifugation at 1000×G for ten minutes is preferred, either at room temperature or in a refrigerated centrifuge. In some cases, an emulsion will form which can be separated by a longer centrifugation step.
A control determination of background radioactivity was made using 50 μl. of reaction buffer instead of diluted serum in the reaction mixture. The purpose of this control was to determine the number of total counts attributable to background radiation, non-specific release of hippuric acid and the presence of unreacted substrate in the ethyl acetate phase. Less than 7% of the ^3 H-HipGly Gly entered the organic phase. Total radioactivity was determined by counting an amount of substrate equal to that used in the reaction mixture directly in the scintillation counter. […]

[4] = tested on: angiotensin converting enzyme (ACE); settings: buffer component / additive; cited from earlier work
[5] = target: T2, angiotensin converting enzyme (ACE); experiment: ACE assay: hydrolysis of ^3H-HipGlyGly by human serum, Lineweaver-Burke Km; format: biochemical; settings: when about 20% or more of the substrate has been hydrolyzed
Method: The following sample illustrates the preferred assay method, the sensitivity of the assay and the Km for ^3 H-HipGlyGly. The reaction buffer contains 0.05 M Hepes, 0.1 M sodium chloride and 0.6 M sodium sulphate at pH 8.0. (Pepes is N-2-Hydroxyethyl piperazine N'-2-ethane sulfonic acid.) The substrate, ^3 H-HipGlyGly was dissolved in reaction buffer at a concentration of 16 mM and a specific radioactivity of about 0.15 millicuries/millimole. Serum was prepared from fresh whole blood by standard techniques. […] Hemolyzed samples were not used in the assay. Serum samples could be stored at least for one week at 2° C. to 8° C. or for at least 8 weeks frozen, prior to assaying. For the assay, 50 μl. of serum was diluted with 200 μl. of reaction buffer. All the reactions were carried out in glass tubes due to the potentially destructive action of ethyl acetate on plastic.
as §1
A control determination of background radioactivity was made using 50 μl. of reaction buffer instead of diluted serum in the reaction mixture. The purpose of this control was to determine the number of total counts attributable to background radiation, non-specific release of hippuric acid and the presence of unreacted substrate in the ethyl acetate phase. Less than 7% of the ^3 H-HipGly Gly entered the organic phase. Total radioactivity was determined by counting an amount of substrate equal to that used in the reaction mixture directly in the scintillation counter.
as §2, with “size. In the case where a significant fraction of substrate has been hydrolyzed, and the substrate in one which is more soluble in the organic phase, as for example, ^125 I-HPPGlyGlyGly, a modified formula is used to take account of the decreasing amount of substrate as the reaction progresses: [formula]” for “size.”
Reciprocal values of initial substrate concentration and reaction velocity were calculated and graphed according to the method of Lineweaver and Burke, as shown in FIG. 1. A straight line was obtained, which intercepted the ordinate at a value equal to the reciprocal of the maximum velocity of the enzyme reaction and intercepted the abcissa at a value equal to the negative reciprocal of the apparent Michaelis constant. […] It can be seen that reaction velocities as low as 12 nanomoles of substrate hydrolyzed per minute per ml. of serum can readily be measured.

[6] = tested on: angiotensin converting enzyme (ACE); experiment: ACE-catalyzed hydrolysis: Km, pH, chloride and buffer dependence; format: biochemical
Description: as §3

[7] = 1 h, read-out: ACE Activity as % of control

## CC[C@H](C)[C@H](NC(=O)[C@H](CCC(N)=O)NC(=O)[C@@H]1CCCN1C(=O)[C@H](CCCNC(=N)N)NC(=O)[C@@H]1CCCN1C(=O)[C@H](Cc1c[nH]c2ccccc12)NC(=O)[C@@H]1CCC(=O)N1)C(=O)N1CCC[C@H]1C(=O)N1CCC[C@H]1C(=O)O [BPP9α (SQ20881)]
[1]; 2.8 × 10^-9 M, substrate 8 mM
  Δ CPM (counts per minute): 2200 counts per minute
[1]; 9 × 10^-8 M, substrate 8 mM
  Δ CPM (counts per minute): 1410 counts per minute
[1]; [7]
  remaining activity at 0.0028 µM: 58%
  remaining activity at 0.09 µM: 37%
[2]; 3.3 × 10^-5 M, read-out: ACE Activity As % of Control
  remaining activity at 33 µM: 28%

## O=C(O)[C@@H]1CCCN1C(=O)c1ccccc1 [Benzoylproline]
[3]
  Fraction extracted into ethyl acetate: about 90%

## O=C(O)CN(CCN(CC(=O)O)CC(=O)O)CC(=O)O [EDTA, Ethylene diamine tetraacetic acid]
[1]
  Δ CPM (counts per minute): 1178
[1]; [7]
  remaining activity at 900 µM: 31%
[2]; 1 × 10^-3 M, read-out: ACE Activity As % of Control
  remaining activity at 1000 µM: 23%
[4]
  Inhibition of ACE (in words): potent inhibitor of ACE

## NCC(=O)NCC(=O)O [GlyGly] (H-Gly-Gly-OH)
[5]
  Product inhibition (in words): Product inhibition has been observed

## [3H]c1ccc(C(=O)N2CCC[C@H]2C(=O)N[C@@H](Cc2ccccc2)C(=O)N[C@@H](CCCNC(=N)N)C(=O)O)cc1 [^3 H-BenzoylProPheArg, ^3 H-benzoylprolylphenylalanylarginine]
[3]
  Fraction extracted into ethyl acetate: about 3%
[6]; ^3H-benzoylProPheArg as substrate
  Km: 200 µM
[6]; by substrate
  Chloride / ionic strength requirement of the ACE-catalyzed hydrolysis: chloride ions and high total ionic strength do not greatly affect the rate

## [3H]c1ccc(C(=O)NCC(=O)O)cc1 [^3 H-Hippuric acid, Hippuric acid (Benzoyl glycine)]
[3]
  Fraction extracted into ethyl acetate: Approximately 91%

## Angiotensin I: decapeptide angiotensin I, having the sequence AspArgValTyrIleHisProPheHisLeu (DRVYIHPFHL; printed: AspArgValTyrIleHisProPheHisLeu)
[1]; 4.5 × 10^-5 M, substrate 8 mM
  Δ CPM (counts per minute): 1278 counts per minute
[1]; 4.5 × 10^-5 M, substrate 8 mM, 45 µM
  ACE Activity as % of control: 34 % of control
[1]; 9 × 10^-6 M, substrate 8 mM
  Δ CPM (counts per minute): 2557 counts per minute
[1]; 9 × 10^-6 M, substrate 8 mM, 9 µM
  ACE Activity as % of control: 67 % of control
[1]; 9 × 10^-7 M, substrate 8 mM
  Δ CPM (counts per minute): 3057 counts per minute
[1]; 9 × 10^-7 M, substrate 8 mM, 0.9 µM
  ACE Activity as % of control: 81 % of control
[1]
  Mode of inhibition (in words): competitive inhibitors
[2]; 7.1 × 10^-5 M, 71 µM
  ACE Activity As % of Control: 27 % of Control

## Phosphate
[4]
  Inhibition of ACE (in words): inhibitory

## RPPGFSPFR [Bradykinin]
[1]; 2.7 × 10^-5 M, substrate 8 mM
  Δ CPM (counts per minute): 1553 counts per minute
[1]; 2.7 × 10^-6 M, substrate 8 mM
  Δ CPM (counts per minute): 3165 counts per minute
[1]; 2.7 × 10^-7 M, substrate 8 mM
  Δ CPM (counts per minute): 3267 counts per minute
[1]; [7]
  remaining activity at 0.27 µM: 86%
  remaining activity at 2.7 µM: 83%
  remaining activity at 27 µM: 41%
[1]
  Mode of inhibition (in words): competitive inhibitors
[2]; 8.2 × 10^-5 M, read-out: ACE Activity As % of Control
  remaining activity at 82 µM: 21%
